Where a name gives a salt, the structure may show the parent alone. Read-outs that look alike come from different tables or passages of the source.
Experiments:
wild-type HIV-1 protease = wild-type HIV-1 protease (Human immunodeficiency virus type 1 group M subtype B, UniProt P04585); assay: Assay for inhibition of microbial expressed HIV protease; assay type: biochemical
Outline: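 E. coli-expressed protease (5 pM) preincubated with inhibitor 30 min at room temperature in 50 mM sodium acetate pH 5.5, 100 mM NaCl, 0.1% BSA. Substrate Val-Ser-Gln-Asn-(betanapthyl)Ala-Pro-Ile-Val at 440 micromolar, 1 h at 30° C; acid-quenched, product peak area by C18 HPLC gives inhibition.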

[1] = system: acute HIV infection of T-lymphoid cells; assay: Assay for inhibition of HIV replication (spread assay); assay type: cell-based, HIV-1; conditions: read-out: Spread - IC95
Procedure: • Assay for Inhibition of HIV Replication
Assays for the inhibition of acute HIV infection of T-lymphoid cells were conducted in accordance with Vacca, J. P. et al., Proc. Natl. Acad. Sci. USA 1994, 91: 4096.

[2] = wild-type HIV-1 protease expressed in E. coli, peptide substrate, pH 5.5, read-out: Enzyme Inhibition - IC50
[3] = Human immunodeficiency virus 1, T-lymphoid

Compound: COC(=O)NC(Cc1cccc(Cl)c1Cl)C(=O)N[C@@H](C)CCC[C@@H](CO)N(C(C)C)S(=O)(=O)c1ccc(CO)cc1 (stereo partly drawn) [Example J45, 2,3-dichloro-N-{(1S,5S)-6-hydroxy-5-[{[4-(hydroxymethyl)phenyl]sulfonyl}(isopropyl)amino]-1-methylhexyl}-Nα-(methoxycarbonyl)phenylalaninamide]
- IC50 (wild-type HIV-1 protease; [2]): 0.041 nM
- IC95 [1, 3]: 80 nM

Compound: COC(=O)NC(C(=O)N[C@@H](C)CCC[C@@H](CO)N(C(C)C)S(=O)(=O)c1ccc(CO)cc1)C(c1cccc(F)c1)c1cccc(F)c1 (stereo partly drawn) [Example J46, 3-fluoro-β-(3-fluorophenyl)-N-{(1S,5S)-6-hydroxy-5-[{[4-(hydroxymethyl)phenyl]sulfonyl}(isopropyl)amino]-1-methylhexyl}-Nα-(methoxycarbonyl)phenylalaninamide]
- IC50 (wild-type HIV-1 protease; [2]): 0.01 nM
- IC95 [1, 3]: 18 nM

Compound: COC(=O)N[C@H](C(=O)N[C@@H](C)CCC[C@@H](CO)N(C(C)C)S(=O)(=O)c1ccc(CO)cc1)C(c1ccccc1)c1ccccc1 [Example K1, N-{(1S,5S)-6-hydroxy-5-[{[4-(hydroxymethyl)phenyl]sulfonyl}(isopropyl)amino]-1-methylhexyl}-Nα-(methoxycarbonyl)-β-phenyl-L-phenylalaninamide]
- IC50 (wild-type HIV-1 protease; [2]): 0.018 nM
- IC95 [1, 3]: 13 nM

Compound: CC[C@@H](CCC[C@@H](CO)N(C(C)C)S(=O)(=O)c1ccc(C(C)=O)cc1)NC(=O)[C@@H](NC(=O)OC)C(c1ccccc1)c1ccccc1 [Example K3, N-{(1S,5S)-5-[[(4-acetylphenyl)sulfonyl](isopropyl)amino]-1-ethyl-6-hydroxyhexyl}-Nα-(methoxycarbonyl)-β-phenyl-L-phenylalaninamide]
- IC50 (wild-type HIV-1 protease; [2]): 0.929 nM
- IC95 [1, 3]: 112 nM

Compound: COC(=O)N[C@H](C(=O)N[C@@H](C)CCC[C@@H](CO)N(C(C)C)S(=O)(=O)c1ccc([C@H](C)O)cc1)C(c1ccccc1)c1ccccc1 [Example K4, N-{(1S,5S)-6-hydroxy-5-[({4-[(1S)-1-hydroxyethyl]phenyl}sulfonyl)(isopropyl)amino]-1-methylhexyl}-Nα-(methoxycarbonyl)-β-phenyl-L-phenylalaninamide]
- IC50 (wild-type HIV-1 protease; [2]): 0.015 nM
- IC95 [1, 3]: 19 nM

Compound: COC(=O)N[C@H](C(=O)N[C@@H](C)CCC[C@@H](CO)N(C(C)C)S(=O)(=O)c1ccc(C(C)=O)cc1)C(c1ccccc1)c1ccccc1 [Example K5, N-{(1S,5S)-5-[[(4-acetylphenyl)sulfonyl](isopropyl)amino]-6-bydroxy-1-methylhexyl}-Nα-(methoxycarbonyl)-β-phenyl-L-phenylalaninamide]
- IC50 (wild-type HIV-1 protease; [2]): 0.284 nM
- IC95 [1, 3]: 41 nM

Compound: COC(=O)N[C@H](C(=O)NC1(CCC[C@@H](CO)N(CCC(C)C)S(=O)(=O)c2ccc(N)cc2)CCCC1)C(c1ccccc1)c1ccccc1 [Example L1, N-(1-{(4S)-4-[[(4-aminophenyl)sulfonyl](3-methylbutyl)amino]-5-hydroxypentyl}cyclopentyl)-Nα-(methoxycarbonyl)-β-phenyl-L-phenylalaninamide]
- IC50 (wild-type HIV-1 protease; [2]): 0.37 nM
- IC95 [1, 3]: 274 nM

Compound: CC(C)N([C@H](CO)CCCC(C)(C)NC(=O)[C@@H](N)C(c1ccccc1)c1ccccc1)S(=O)(=O)c1ccc(N)cc1 [Example L2, N-{(5S)-5-[[(4-aminophenyl)sulfonyl](isopropyl)amino]-6-hydroxy-1,1-dimethylhexyl}-β-phenyl-L-phenylalaninamide]
- IC50 (wild-type HIV-1 protease; [2]): 0.018 nM
- IC95 [1, 3]: 23 nM

Compound: COC(=O)N[C@H](C(=O)NC1(CCCC(CO)N(CCC(C)C)S(=O)(=O)c2ccc(N)cc2)CCC1)C(c1ccccc1)c1ccccc1 (stereo partly drawn) [Example L3, N-(1-{4-[[(4-aminophenyl)sulfonyl](3-methylbutyl)amino]-5-hydroxypentyl}cyclobutyl)-Nα-(methoxycarbonyl)-β-phenyl-L-phenylalaninamide]
- IC50 (wild-type HIV-1 protease; [2]): 0.234 nM
- IC95 [1, 3]: 471 nM

Compound: COC(=O)N[C@H](C(=O)NC(C)(C)CCC[C@@H](CO)N(CCC(C)C)S(=O)(=O)c1ccc(N)cc1)C(c1ccccc1)c1ccccc1 [Example L4, N-{(5S)-5-[[(4-aminophenyl)sulfonyl](3-methylbutyl)amino]-6-hydroxy-1,1-dimethylhexyl}-Nα-(methoxycarbonyl)-β-phenyl-L-phenylalaninamide]
- IC50 (wild-type HIV-1 protease; [2]): 0.01 nM
- IC95 [1, 3]: 41 nM

Compound: COC(=O)N[C@H](C(=O)NC(C)(C)CCC[C@@H](CO)N(CC(C)C)S(=O)(=O)c1ccc(N)cc1)C(c1ccccc1)c1ccccc1 [Example L5, N-{(5S)-5-[[(4-aminophenyl)sulfonyl](isobutyl)amino]-6-hydroxy-1,1-dimethylhexyl}-Nα-(methoxycarbonyl)-β-phenyl-L-phenylalaninamide]
- IC50 (wild-type HIV-1 protease; [2]): 0.154 nM
- IC95 [1, 3]: 185 nM

Compound: CCCN([C@H](CO)CCCC(C)(C)NC(=O)[C@@H](NC(=O)OC)C(c1ccccc1)c1ccccc1)S(=O)(=O)c1ccc(N)cc1 [Example L6, N-{(5S)-5-[[(4-aminophenyl)sulfonyl](propyl)amino]-6-hydroxy-1,1-dimethylhexyl}-Nα-(methoxycarbonyl)-β-phenyl-L-phenylalaninamide]
- IC50 (wild-type HIV-1 protease; [2]): 0.095 nM
- IC95 [1, 3]: 196 nM

Compound: COC(=O)N[C@H](C(=O)NC(C)(C)CCC[C@@H](CO)N(CCCF)S(=O)(=O)c1ccc(N)cc1)C(c1ccccc1)c1ccccc1 [Example L7, N-{(5S)-5-[[(4-aminophenyl)sulfonyl](3-fluoropropyl)amino]-6-hydroxy-1,1-dimethylhexyl}-Nα-(methoxycarbonyl)-β-phenyl-L-phenylalaninamide]
- IC50 (wild-type HIV-1 protease; [2]): 0.062 nM
- IC95 [1, 3]: 178 nM

Compound: COC(=O)N[C@H](C(=O)NC(C)(C)CCC[C@@H](CO)N(C(C)C)S(=O)(=O)c1ccc(N)cc1)C(c1ccccc1)c1ccccc1 [Example L8]
- IC50 (wild-type HIV-1 protease; [2]): 0.267 nM
- IC95 [1, 3]: 264 nM

Compound: CN[C@H](C(=O)NC(C)(C)CCC[C@@H](CO)N(C(C)C)S(=O)(=O)c1ccc(N)cc1)C(c1ccccc1)c1ccccc1 [Example L9, N-{(5S)-5-[[(4-aminophenyl)sulfonyl](isopropyl)amino]-6-hydroxy-1,1-dimethylhexyl}-Nα-methyl-β-phenyl-L-phenylalaninamide hydrochloride]
- IC50 (wild-type HIV-1 protease): 0.1 nM
- IC95 [1, 3]: 26 nM

Compound: CC(C)N([C@H](CO)CCCC(C)(C)NC(=O)[C@@H](N)Cc1ccccc1Cl)S(=O)(=O)c1ccc(N)cc1 [Example L10, N-{(5S)-5-[[(4-aminophenyl)sulfonyl](isopropyl)amino]-6-hydroxy-1,1-dimethylhexyl}-2-chloro-L-phenylalaninamide hydrochloride]
- IC50 (wild-type HIV-1 protease): 3.2 nM
- IC95 [1, 3]: 241 nM

Compound: Methyl {(1S)-1-(diphenylmethyl)-2-[((5S)-6-hydroxy-2-methyl-5-{(3-methylbutyl) [(4-methylphenyl)sulfonyl]amino}hexylamino]-2-oxoethyl}carbamate [Example C1]
- IC50 (wild-type HIV-1 protease; [2]): 0.2 nM
- IC95 ([1]; inhibition of HIV-1 replication, 10% FBS): 193 nM

Reference: patent publication US20100093811A1 (priority 2007, published 2010)
